Results from publication PMC9315496, “A Comparison of the Photophysical, Electrochemical and Cytotoxic Properties of meso-(2-, 3- and 4-Pyridyl)-BODIPYs and Their Derivatives” (Sensors (Basel, Switzerland), 2022).
Marks after values point to notes of the source that are not given here.

What was measured:
[1] = UV-vis absorption and emission spectroscopy, relative fluorescence quantum yields; type: physicochemical; details: for λabs / λem: room temperature; for Фf (relative fluorescence quantum yield): standard rhodamine-6G (Ф = 0.86) in methanol, λexc = 473 nm; for Φf (relative fluorescence quantum yield): standard Ru(bpy)Cl2.6H2O (Φf = 0.028) in H2O, λexc = 436 nm
Experimental: UV−vis absorption spectra were collected on a Varian Cary 50 Bio spectrophotometer. Emission spectra were obtained on a PerkinElmer LS55 spectrophotometer, at room temperature. Spectrophotometric grade solvents and quartz cuvettes (1 cm path length) were used. Relative fluorescence quantum yields (Φf) were calculated using rhodamine 6G (Φf = 0.86 in methanol) as reference for the neutral BODIPYs and Ru(bpy)Cl2.6H2O (Φf = 0.028 in water) as the standard for the cationic BODIPYs using the following equation: Φx = Φst × Gradx/Gradst × (ηx/ηst)^2, where the ΦX and ΦST are the quantum yields of the sample and standard, GradX and GradST are the gradients from the plot of integrated fluorescence intensity vs. absorbance, and η represents the refractive index of the solvent (x is for the sample and st for the standard).

[2] = test system: HEp2 cells; assay: Dark cytotoxicity, Cell Titer Blue; type: cell-based; details: Homo sapiens, HEp-2, 24 h incubation, read-out: Dark Toxicity (IC50)
Experimental: (§1) Human carcinoma HEp2 cells were obtained from ATCC and maintained in a 75 cm^2 flask (Chemglass) with 1× MEM (Eagle’s minimal essential medium) containing 10% FBS (fetal bovine serum) and 1% antibiotic (penicillin–streptomycin) in a humidified, 5% CO2 incubator at 37 °C. Stock solutions with a concentration of 32 mM in DMSO were prepared for each BODIPY. The stock solution was diluted to the final working concentrations with culture medium. The HEp2 cells were plated at 7500–10,000 cells per well in a Costar 96-well plate and allowed to grow for 24 h. The BODIPY stock solution was diluted to a 200 μM working solution and two-fold serial dilutions were prepared with final concentrations of 200, 100, 50, 25, 12.5, 6.25, and 0 μM. Each BODIPY was incubated for 24 h at 37 °C under 5% CO2. For the dark cytotoxicity experiments, after incubation, excess BODIPY was removed by washing the cells three times with 1× PBS (phosphate-buffered saline) and replacing with media containing 20% Cell Titer Blue (Promega, Madison, WI, USA). The cells were then incubated for additional 24 h at 37 °C under 5% CO2 and the cell toxicity was determined by fluorescence intensity at ex 570/em 615 nm using a FluoStar Optima microplate reader (BMG Labtech, Cary, NC, USA).

[3] = test system: HEp2 cells; assay: Phototoxicity (1.5 J/cm^2), Cell Titer Blue; type: cell-based; details: Homo sapiens, HEp-2, light or radiation study, light dose 1.5 J/cm^2
Experimental: as §1
For the phototoxicity experiments, after incubation the cells were exposed to a light dose of ~1.5 J/cm^2 generated using a 600 W Quartz Tungsten Halogen lamp (Newport Corporation, Irvine, CA, USA). The cells were exposed for 20 min while the 96-well plate rested on an EchoTherm chilling plate (Torrey Pines Scientific, Carlsbad, CA, USA) set to 5 °C. Following light exposure, the loading media was removed and media containing 20% Cell Titer Blue was added. After incubation for 24 h at 37 °C under 5% CO2, the cell viability was determined as described above.

[4] = Cyclic voltammetry; type: physicochemical; details: for E1/2red, first one-electron reduction / E1/2red, second one-electron reduction / E1/2ox: vs. Fc^+/Fc, acetonitrile, 0.25 M NBu4PF6
From the text: Cyclic voltammograms were collected on a Biologic SP-300 potentiostat using a three-electrode setup with a platinum working electrode (2 mm diameter, CH Instruments), platinum counter electrode (2 mm diameter, CH Instruments), and a silver wire pseudo reference-electrode stored in 0.25 M NBu4PF6 in anhydrous acetonitrile and separated from the electrochemical cell by a glass frit. The electrochemical cell was composed of a borosilicate glass scintillation vial with a custom-machined cap. Working electrodes were polished and then pre-treated by cycling between upper and lower boundaries of the electrochemical window for the experiment in a solution containing only the electrolyte. Measurements were taken in a solution of 0.25 M recrystallized NBu4PF6 in dried and degassed anhydrous acetonitrile. BODIPYs were added to 5 mL of electrolyte solution to give a concentration of 1 mM. Each solution also contained 1 mM ferrocene as an internal reference. Solutions were sparged with N2 before each measurement.

Structure (SMILES)	Stokes Shift ([1]; CH3CN)	ε (molar extinction coefficient) ([1]; CH3CN)	λabs ([1]; CH3CN)	λem ([1]; CH3CN)	Stokes Shift ([1]; CH3OH)	labs ([1]; CH3OH)	lem ([1]; CH3OH)	ε (molar extinction coefficient) ([1]; CH3OH)	Фf (relative fluorescence quantum yield) ([1]; CH3OH)	IC50 [2]	IC50 [3]	E1/2red, first one-electron reduction ([4]; 100 mV/s)	E1/2red, second one-electron reduction ([4]; 100 mV/s)	Φf (relative fluorescence quantum yield) ([1]; CH3CN)	Stokes Shift ([1]; H2O)	ε (molar extinction coefficient) ([1]; H2O)	λabs ([1]; H2O)	λem ([1]; H2O)	Φf (relative fluorescence quantum yield) ([1]; H2O)	further results
CC1=C(Cl)C(C)=[N+]2C1=C(c1ccccn1)c1c(C)c(Cl)c(C)n1[B-]2(F)F [2PyCl2, 2,6-Dichloro-8-(2-pyridyl)-1,3,5,7-tetramethyl-BODIPY]	15 nm	64,280 M^−1 cm ^−1	530 nm	545 nm	17 nm	531 nm	548 nm	69940 M-1 cm -1	0.23	> 200 µM	> 100 µM	–	–	–	–	–	–	–	–	–
CC1=CC(C)=[N+]2C1=C(c1ccccn1)c1c(C)cc(C)n1[B-]2(F)F [2Py]	12 nm	87,500 M^−1 cm ^−1	502 nm	514 nm	10 nm	504 nm	514 nm	119800 M-1 cm -1	0.13	> 200 µM	> 100 µM	–	–	–	–	–	–	–	–	–
CC1=CC(C)=[N+]2C1=C(c1cccc[n+]1C)c1c(C)cc(C)n1[B-]2(F)F [2catPy, 1,3,5,7-Tetramethyl-8-(N-methyl-2-pyridyl)-BODIPY Iodide]	24 nm	65,800 M^−1 cm ^−1	520 nm	544 nm	–	–	–	–	–	> 200 µM	> 100 µM	−1.09 V	−1.29 V	0.13 ^b	22 nm	52,380 M^−1 cm ^−1	520 nm	542 nm	0.001 ^b	first reduction, more negative than the two-electron reduction in 4catPy [4]: 30 mV; oxidation potential shift positive compared with 4catPy and 3catPy [4]: 100 mV; second reduction, more negative than the two-electron reduction in 4catPy [4]: 230 mV; E1/2ox ([4]; 100 mV/s, PF6^− counterion): ~+0.99 ^a V; bathochromic shift of maximum absorption wavelength upon methylation ([1]; acetonitrile, experimental): 18 nm
CC1=C(Cl)C(C)=[N+]2C1=C(c1cccc[n+]1C)c1c(C)c(Cl)c(C)n1[B-]2(F)F [2catPyCl2, 2,6-Dichloro-8-(N-methyl-2-pyridyl)-1,3,5,7-tetramethyl-BODIPY]	17 nm	19,420 M^−1 cm ^−1	530 nm	547 nm	–	–	–	–	–	80 µM	80 µM	−0.87 V	−1.16 V	0.17 ^b	22 nm	21,000 M^−1 cm ^−1	555 nm	577 nm	0.24	first reduction wave shift positive compared with the unchlorinated BODIPY [4]: 220 mV; second reduction wave shift positive compared with the unchlorinated BODIPY [4]: 130 mV; anodic peak shift positive compared with the corresponding unchlorinated BODIPY ([4]; 100 mV/s): 70 mV; E1/2ox ([4]; value at 10 V/s): +1.10 ^b V; Φf (relative fluorescence quantum yield) ([1]; H2O, listed as 2catPyCl2 (I^−)): 0.24 ^b; fluorescence enhancement relative to the non-chlorinated pyridinium BODIPY ([1]; water): over 200 fold
CC1=C(Cl)C(C)=[N+]2C1=C(c1cccnc1)c1c(C)c(Cl)c(C)n1[B-]2(F)F [3PyCl2, 2,6-Dichloro-8-(3-pyridyl)-1,3,5,7-tetramethyl-BODIPY]	15 nm	57,540 M^−1 cm ^−1	527 nm	542 nm	16 nm	530 nm	546 nm	66880 M-1 cm -1	0.57	200 µM	> 100 µM	–	–	–	–	–	–	–	–	–
CC1=CC(C)=[N+]2C1=C(c1cccnc1)c1c(C)cc(C)n1[B-]2(F)F [3Py]	12 nm	92,900 M^−1 cm ^−1	502 nm	514 nm	12 nm	503 nm	515 nm	98140 M-1 cm -1	0.34	> 200 µM	> 100 µM	–	–	–	–	–	–	–	–	–
